Assay type in all cases: binding
One assay concerns the target T1, P2RY14 (Homo sapiens, UniProt Q15391).
T1 construct: purchased Promega (in-house HiBiT-GPCR construct library, NanoBRET)
T1 sequence (Q15391 1-338): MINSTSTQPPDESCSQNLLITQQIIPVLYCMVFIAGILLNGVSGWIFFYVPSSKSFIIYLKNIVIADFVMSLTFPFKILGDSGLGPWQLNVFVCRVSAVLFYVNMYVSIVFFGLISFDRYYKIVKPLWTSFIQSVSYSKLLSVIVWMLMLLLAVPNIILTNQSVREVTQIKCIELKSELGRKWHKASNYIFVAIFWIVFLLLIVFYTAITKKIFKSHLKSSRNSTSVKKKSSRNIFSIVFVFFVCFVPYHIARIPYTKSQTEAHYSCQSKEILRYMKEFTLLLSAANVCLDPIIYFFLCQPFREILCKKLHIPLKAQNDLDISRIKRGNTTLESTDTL
Briefly: NanoBRET screen HiBiT-P2RY14 in HEK293. The protocol:
(§1) Each tracer candidate was screened across the entire library of HiBiT-GPCR constructs using NanoBRET as the detection modality. As depicted in Figure 4A, the specificity of interactions was evaluated through decrease in BRET due to competitive displacement of a bound tracer by excess parental compound. Each tracer was analyzed for binding to each HiBiT-GPCR fusion in the absence and in the presence of competing parental compound. Briefly, HEK293 cells were transfected with HiBiT-GPCR constructs diluted into promoterless DNA to reduce expression and maximize translocation to the cell surface. Each tracer candidate was then screened at concentrations of 1 μM and 0.1 μM across cells expressing these fusions. Cells were treated for 1.5 h with tracer either alone or in the presence of 20 μM competing parental compound (i.e., control). BRET was measured upon addition of purified LgBiT and subsequent complementation with HiBiT genetically fused to a GPCR. The specificity of interactions was assessed through a decrease in BRET signal due to competitive displacement of the bound tracer. To further gauge the robustness of these interactions, the fold response over the control (i.e., BRETtracer/BRETcontrol) was calculated. We chose a 1.5-fold response, which translates to ≥7-fold signal over noise as the minimal threshold required to score an interaction as positive. […]. Below we highlight the screening results obtained for our exemplary fluorescent tracers based on Clozapine, Amitriptyline and AZD1283.
(§2) HiBiT-GPCR DNA constructs were diluted in 10 mM Tris pH 8 to a final concentration of 0.01 μg/μL, arrayed in 96-well plates and stored at −20 °C. For transfection, HEK293 cells were suspended in Opti-MEM (without phenol red) supplemented with 2% fetal bovine serum (Seradigm) and 100 units/mL penicillin–streptomycin (Gibco) at a final concentration of 220,000 cells/mL and dispensed into white 96-well plates at 90 μL/well. Subsequent transfections and screens were carried using an Agilent Bravo Automated Liquid Handling Platform. First, the 96-well HiBiT DNA arrays were diluted 25-fold in Opti-MEM (without serum or phenol red) to a final concentration of 0.0004 μg/μL and 20 μL of the diluted DNAs were transferred into new 96-well plates. Next, promoterless carrier DNA (1 μg/μL) was diluted 25-fold (0.04 μg/μL) and then dispensed into the diluted arrays at 20 μL/well. Following brief mixing, Viafect transfection reagent (Promega) diluted 16-fold into Opti-MEM was dispensed into the plates at 40 μL/well. After mixing by pipetting, plates were incubated for 10 min on the pipetting station deck. The DNA-transfection reagent complexes were then added to plates containing cells. To facilitate the screen, 10 μL of DNA-transfection reagent complexes were added in duplicates to the top 4 and bottom 4 rows, resulting in two identical 48-well arrays per plate. Plates with transfected cells were incubated for 18–20 h at 37 °C/5% CO2. A screen of each tracer across the entire library using two different concentrations requires duplicate plates of transfected cells. Depending on the number of tracers being screened, transfections can be scaled up using the same ratios. The next day, for each tracer, four 20× screening solutions in tracer dilution buffer (Promega) were prepared: two duplicates at final concentration of 20 μM and two duplicates at a final concentration of 2 μM. A competing unmodified compound was added to one of each duplicate at a final concentration of 400 μM. The four resulting solutions were diluted 4-fold in Opti-MEM without serum or phenol red to generate 5× solutions (5 µM and 0.5 µM tracer +/− 100 μM competing compound). To screen the library, a BioTek MultiFlo FX liquid dispenser was used to dispense 22.5 µL of tracer solution to the top 4 rows and 22.5 µL tracer + competing compound solution to the 4 bottom rows. Plates were briefly mixed on an orbital shaker and incubated for 1.5 h at room temperature. […]

In a further assay the target is T2, C5AR1 (Homo sapiens, UniProt P21730).
T2 construct: purchased Promega (in-house HiBiT-GPCR construct library, NanoBRET)
T2 sequence (P21730 1-350): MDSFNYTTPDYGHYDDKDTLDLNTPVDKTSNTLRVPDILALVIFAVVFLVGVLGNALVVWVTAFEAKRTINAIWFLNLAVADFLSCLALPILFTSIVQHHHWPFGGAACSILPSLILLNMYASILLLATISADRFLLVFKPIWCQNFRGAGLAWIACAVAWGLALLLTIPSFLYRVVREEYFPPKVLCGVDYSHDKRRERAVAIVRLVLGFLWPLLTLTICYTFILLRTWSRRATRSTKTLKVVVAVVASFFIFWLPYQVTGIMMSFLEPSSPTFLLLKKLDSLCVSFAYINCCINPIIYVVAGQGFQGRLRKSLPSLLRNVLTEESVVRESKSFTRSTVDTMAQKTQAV
In words: NanoBRET screen HiBiT-C5AR1 in HEK293. Here is the method: as §1, §2

Another assay deals with T3, CCR6 (Homo sapiens, UniProt P51684).
T3 construct: purchased Promega (in-house HiBiT-GPCR construct library, NanoBRET)
T3 sequence (P51684 1-374): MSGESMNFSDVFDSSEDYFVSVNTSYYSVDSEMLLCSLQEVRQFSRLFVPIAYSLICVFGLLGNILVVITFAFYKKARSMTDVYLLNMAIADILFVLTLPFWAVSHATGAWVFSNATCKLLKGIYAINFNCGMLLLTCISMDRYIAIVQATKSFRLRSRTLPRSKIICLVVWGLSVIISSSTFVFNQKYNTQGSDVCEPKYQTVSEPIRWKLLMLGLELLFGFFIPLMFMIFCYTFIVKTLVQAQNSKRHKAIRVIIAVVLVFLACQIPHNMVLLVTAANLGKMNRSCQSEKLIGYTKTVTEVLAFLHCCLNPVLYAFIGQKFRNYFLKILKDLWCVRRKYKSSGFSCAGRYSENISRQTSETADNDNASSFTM
Briefly: NanoBRET screen HiBiT-CCR6 in HEK293. The protocol:
as §1, §2

Molecules are shown by their SMILES.

Take `O=C(CCOCCOCCOCCOCCNC(=O)CCc1ccc2n1[B-](F)(F)[N+]1=C(c3ccc[nH]3)C=CC1=C2)NCCCN1CCN(C2=Nc3ccccc3Oc3ccc(Cl)cc32)CC1` [Loxapine-a-2-NB590]: the “NanoBRET Fold Response” value is on record as 0.94 at P2RY14 (P2RY14, tracer 0.1μM); 0.98 at P2RY14 (P2RY14, tracer 1μM); 1.01 at C5AR1 (C5AR1, tracer 0.1μM); 0.98 at C5AR1 (C5AR1, tracer 1μM); 1.00 at CCR6 (CCR6, tracer 0.1μM); 0.97 at CCR6 (CCR6, tracer 1μM).

As for `CCCn1c(=O)c2[nH]c(-c3ccc(OCC(=O)NCCNC(=O)CCOCCNC(=O)c4ccc(CNC(=O)CCc5ccc6n5[B-](F)(F)[N+]5=C(c7ccc[nH]7)C=CC5=C6)cc4)cc3)nc2n(CCC)c1=O` [XAC-3-NB590], the “NanoBRET Fold Response” value at P2RY14 (P2RY14, tracer 0.1μM) is reported as 0.59; on P2RY14 (P2RY14, tracer 1μM), 1.36; on C5AR1 (C5AR1, tracer 0.1μM), 0.95; at C5AR1 (C5AR1, tracer 1μM), 1.04; at CCR6 (CCR6, tracer 0.1μM), 1.00; at CCR6 (CCR6, tracer 1μM), 1.26.

Take `CN(C)CCC=C1c2ccccc2CCc2ccc(C(=O)NCCNC(=O)CCOCCOCCOCCOCCNC(=O)CCc3ccc4n3[B-](F)(F)[N+]3=C(c5ccc[nH]5)C=CC3=C4)cc21` [Amitriptyline-a-2-NB590]: the “NanoBRET Fold Response” value on P2RY14 (tracer at 1μM) was determined as 1.09; on C5AR1 (tracer at 0.1μM), 1.03; on C5AR1 (tracer at 1μM), 1.01; at CCR6 (tracer at 0.1μM), 0.96; at CCR6 (tracer at 1μM), 0.94.

As for `COc1ccccc1N1CCN(CCCCN2C(=O)c3ccc(CNC(=O)CCOCCOCCOCCOCCNC(=O)CCc4ccc5n4[B-](F)(F)[N+]4=C(c6ccc[nH]6)C=CC4=C5)cc3C2=O)CC1` [NAN-190-2-NB590], the “NanoBRET Fold Response” value at P2RY14 (P2RY14, tracer 0.1μM) amounted to 1.02; on C5AR1 (C5AR1, tracer 0.1μM) it was 1.03; on C5AR1 (C5AR1, tracer 1μM), 1.04; on CCR6 (CCR6, tracer 0.1μM), 0.99; at CCR6 (CCR6, tracer 1μM) it was 1.02.

Consider `O=C(CCc1ccc2n1[B-](F)(F)[N+]1=C(c3ccc[nH]3)C=CC1=C2)NCc1ccc(C(=O)NCCOCCOCCNCC(O)COc2cccc3ccccc23)cc1` (stereo not shown) [Propranolol-3-NB590], for which the “NanoBRET Fold Response” value at P2RY14 (P2RY14, 0.1μM) came to 1.10; at P2RY14 (P2RY14, 1μM), 1.00; at C5AR1 (C5AR1, 0.1μM), 1.05; at C5AR1 (C5AR1, 1μM), 1.03; at CCR6 (CCR6, 0.1μM), 0.95; at CCR6 (CCR6, 1μM), 1.02.

With `COc1ccccc1N1CCN(CCCCN2C(=O)c3ccc(CNC(=O)CCOCCNC(=O)c4ccc(CNC(=O)CCc5ccc6n5[B-](F)(F)[N+]5=C(c7ccc[nH]7)C=CC5=C6)cc4)cc3C2=O)CC1` [NAN-190-3-NB590], the “NanoBRET Fold Response” value amounted to 0.95 at P2RY14 (P2RY14, tracer 0.1μM); 1.06 on P2RY14 (P2RY14, tracer 1μM); 1.02 on C5AR1 (C5AR1, tracer 0.1μM); 1.10 at C5AR1 (C5AR1, tracer 1μM); 1.19 on CCR6 (CCR6, tracer 0.1μM); 0.93 on CCR6 (CCR6, tracer 1μM).

Turning to `O=C(CCc1ccc2n1[B-](F)(F)[N+]1=C(c3ccc[nH]3)C=CC1=C2)NCc1ccc(C(=O)NCCOCCC(=O)N[C@@H]2CC[C@@]3(O)[C@H]4Cc5ccc(O)c6c5[C@@]3(CCN4CC3CC3)[C@H]2O6)cc1` [Naltrexone-3-NB590], the “NanoBRET Fold Response” value was 0.95 on P2RY14 (P2RY14, tracer 0.1μM); 1.00 on P2RY14 (P2RY14, tracer 1μM); 0.94 at C5AR1 (C5AR1, tracer 0.1μM); 0.93 at C5AR1 (C5AR1, tracer 1μM); 0.94 on CCR6 (CCR6, tracer 0.1μM); 1.24 on CCR6 (CCR6, tracer 1μM).

In the case of `CCOC(=O)c1cc(C#N)c(N2CCC(C(=O)NS(=O)(=O)Cc3ccccc3/C=C/C(=O)NCCNC(=O)CCc3ccc4n3[B-](F)(F)[N+]3=C(c5ccc[nH]5)C=CC3=C4)CC2)nc1C` [AZD1283-1-NB590], the “NanoBRET Fold Response” value at P2RY14 (P2RY14, 0.1μM) is reported as 1.14; on P2RY14 (P2RY14, 1μM), 1.18; at C5AR1 (C5AR1, 0.1μM), 1.07; at C5AR1 (C5AR1, 1μM) it was 1.07; at CCR6 (CCR6, 0.1μM) it was 1.06; at CCR6 (CCR6, 1μM), 1.08.

In the case of `COc1ccc2[nH]c(-c3ccc(CNC(=O)CCOCCOCCOCCOCCNC(=O)CCc4ccc5n4[B-](F)(F)[N+]4=C(c6ccc[nH]6)C=CC4=C5)cc3)c(CCNC(C)=O)c2n1` [AzomelatoninICO9-2-NB590], the “NanoBRET Fold Response” value on P2RY14 (0.1μM tracer) was determined as 1.21; at P2RY14 (1μM tracer), 1.13; on C5AR1 (0.1μM tracer), 0.99; on C5AR1 (1μM tracer), 0.98; at CCR6 (0.1μM tracer), 0.85; at CCR6 (1μM tracer), 1.20.

Take `CC(C)N(CC[C@H](c1ccccc1)c1cc(CCNC(=O)CCOCCOCCOCCOCCNC(=O)CCc2ccc3n2[B-](F)(F)[N+]2=C(c4ccc[nH]4)C=CC2=C3)ccc1O)C(C)C` [Tolterodine-2-NB590]: the “NanoBRET Fold Response” value on P2RY14 (P2RY14, tracer 0.1μM) was found to be 0.93; on P2RY14 (P2RY14, tracer 1μM) it was 1.08; on C5AR1 (C5AR1, tracer 0.1μM) it was 0.95; on C5AR1 (C5AR1, tracer 1μM), 1.08; on CCR6 (CCR6, tracer 0.1μM) it was 1.07; on CCR6 (CCR6, tracer 1μM), 1.01.

On to `CN1CCN(C2=Nc3cc(Cl)ccc3N(CC(=O)NCCOCCOCCOCCOCCNC(=O)CCc3ccc4n3[B-](F)(F)[N+]3=C(c5ccc[nH]5)C=CC3=C4)c3ccccc32)CC1` [Clozapine-c-2-NB590], for which the “NanoBRET Fold Response” value on P2RY14 (P2RY14, 0.1μM tracer) was found to be 0.96; at P2RY14 (P2RY14, 1μM tracer), 0.89; on C5AR1 (C5AR1, 0.1μM tracer), 1.00; on C5AR1 (C5AR1, 1μM tracer), 1.05; at CCR6 (CCR6, 0.1μM tracer), 0.99; at CCR6 (CCR6, 1μM tracer), 0.91.
